In PubChem BioAssay (NCI):
Several values for one entry are separate records, joined by “and”; a condition that tells them apart may be missing. Equal entries are not always repeated.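 In this assay, cells in 96-well plates receive the compound at five concentrations for 48 hours. Endpoints are linearly interpolated between the surrounding concentrations. Here, GI50 denotes the concentration required for 50% inhibition of growth. TGI denotes the concentration required for complete inhibition of growth.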

Key:
Test in all cases: NCI-60 cell line screen, 48 h
K-562 leukemia = test system: K-562 leukemia
UACC-257 melanoma = test system: UACC-257 melanoma
A498 renal = test system: A498 renal
NCI/ADR-RES ovarian = test system: NCI/ADR-RES ovarian
SW-620 colon = test system: SW-620 colon
SK-MEL-28 melanoma = test system: SK-MEL-28 melanoma
MALME-3M melanoma = test system: MALME-3M melanoma
SNB-75 CNS = test system: SNB-75 CNS
SF-268 CNS = test system: SF-268 CNS
NCI-H23 lung = test system: NCI-H23 lung

| SMILES | GI50 (K-562 leukemia) | TGI (K-562 leukemia) | GI50 (UACC-257 melanoma) | TGI (UACC-257 melanoma) | GI50 (A498 renal) | TGI (A498 renal) | GI50 (NCI/ADR-RES ovarian) | TGI (NCI/ADR-RES ovarian) | GI50 (SW-620 colon) | TGI (SW-620 colon) | GI50 (SK-MEL-28 melanoma) | TGI (SK-MEL-28 melanoma) | GI50 (MALME-3M melanoma) | TGI (MALME-3M melanoma) | TGI (SNB-75 CNS) | GI50 (SF-268 CNS) | TGI (SF-268 CNS) | GI50 (NCI-H23 lung) | TGI (NCI-H23 lung) | GI50 (SNB-75 CNS) |
| --- | --- | --- | --- | --- | --- | --- | --- | --- | --- | --- | --- | --- | --- | --- | --- | --- | --- | --- | --- | --- |
| CN(Cc1cnc2nc(N)nc(N)c2n1)c1ccc(C(=O)NC(CCC(=O)O)C(=O)O)cc1Br (configuration not stated) | < 0.01 µM | > 100 µM | 0.168 µM | 16.5 µM | < 0.01 µM | 4.71 µM | < 0.01 µM | > 100 µM | < 0.01 µM | > 83.9 µM | 0.23 µM | 19.5 µM | < 0.01 µM | 3.92 µM | 5.06 µM | < 0.01 µM | 13.1 µM | < 0.01 µM | 2.12 µM |  |
| CCN(CC)Cc1cc2[nH]c3c4ccc(Cl)cc4ncc3c2cc1OC | 3.39 µM and 1.89 µM | > 20.5 µM and 4.28 µM | 2.79 µM and 1.82 µM | 6.92 µM and 3.45 µM | 15.9 µM and 10 µM | 29.4 µM and 21.7 µM | 3.67 µM and 3.31 µM | 13.5 µM and 12 µM | 2.3 µM and 1.91 µM | 6.72 µM and 4.44 µM | 1.95 µM and 1.88 µM | 3.53 µM and 3.42 µM | 1.72 µM and 1.99 µM | 3.33 µM and 3.75 µM | 3.92 µM and 3.88 µM | 3.33 µM and 2.9 µM | 10 µM and 9.2 µM | 6.07 µM and 3.33 µM | 20.3 µM and 14.4 µM | 1.61 µM and 1.81 µM |
| O=C(CN1C(=O)S/C(=C\C(Cl)=C\c2ccccc2)C1=O)NC1C=CS(=O)(=O)C1 (configuration not stated) | 0.4 µM | > 100 µM | 2.18 µM | 8.82 µM | 1.42 µM | 4 µM | 1.99 µM | > 100 µM | 0.553 µM | 2.86 µM | 1.81 µM | 3.9 µM | 1.27 µM | 3.93 µM | 12.6 µM | 2.44 µM | 8.55 µM | 2.09 µM | 7.17 µM | 0.387 µM |
| CC1=C(C(=O)Nc2ccc(Cl)c(C(=O)OC(C)C)c2)SCCO1 |  | > 90.2 µM |  | > 89.8 µM |  | 90.9 µM |  | > 91.8 µM |  | > 79.4 µM |  | 99.5 µM |  | 92.2 µM | > 100 µM |  | > 89.9 µM |  | 96.3 µM |  |
| CSc1ccc2c(c1)C(N1CCN(C)CC1)Cc1ccccc1S2 (configuration not stated) |  | 4.5 µM | 1.54 µM | 5.43 µM and 3.03 µM | 1.37 µM | 25.8 µM and 2.8 µM | 1.96 µM | 19 µM and 4.58 µM | 1.69 µM | 20.6 µM and 3.42 µM | 1.64 µM | 3.06 µM |  | 4.28 µM and 3.41 µM | 3.15 µM and 3.87 µM | 2.1 µM | 14.7 µM and 5.55 µM | 3.22 µM | 28.8 µM and 11.8 µM | 1.49 µM |
| Cc1cc(Cl)nc(N(CCCNc2ccnc3cc(Cl)ccc23)Cc2ccco2)n1 | 1.4 µM | 5.86 µM | 2.21 µM | 5.76 µM | 1.55 µM | 7.99 µM | 1.76 µM | 6.87 µM | 2.5 µM | 10.3 µM | 2.38 µM | 6.37 µM | 2.21 µM | 5.58 µM | 11.2 µM | 3.83 µM | 31.1 µM | 1.98 µM | 7.68 µM | 2.13 µM |
| CCOC(=O)COc1ccc2c(C)cc(=O)oc2c1 |  | > 100 µM |  | > 100 µM |  | > 100 µM |  | > 100 µM |  | > 100 µM |  | > 100 µM |  | > 100 µM | > 100 µM |  | > 100 µM |  | > 100 µM |  |
| CCOC(=O)c1cnc2c(C)cccc2c1Nc1ccc(C(C)=O)cc1 | > 100 µM | > 100 µM | 79.9 µM | > 100 µM | 11.9 µM | 63.4 µM | 16.5 µM | 72.5 µM | 92.6 µM | > 100 µM | 50.2 µM | > 100 µM | 28.7 µM | > 100 µM | 51 µM | 18.3 µM | 64.2 µM | 28.5 µM | > 100 µM | 15.4 µM |
| CN(C)C(=S)SCC(=O)Nc1ccccc1 |  | > 100 µM |  | > 100 µM |  | > 100 µM |  | > 100 µM |  | > 100 µM |  | > 100 µM |  | > 100 µM | > 100 µM |  | > 100 µM |  | > 100 µM |  |
| COc1ccc(N(C)c2nc(N)nc3sc4c(c23)CCCC4)cc1 | < 0.01 µM | > 42.2 µM | 8.12 µM | 26.3 µM | < 0.01 µM | < 0.0209 µM | < 0.01 µM | 14.4 µM | < 0.01 µM | 16.4 µM | 4.3 µM | 23.4 µM | < 0.0125 µM | 18.9 µM | 13.2 µM | < 0.0159 µM | 14.5 µM | < 0.01 µM | 20.8 µM | < 0.01 µM |
| Cn1ncc(Cl)c1-c1cc(C(=O)N[C@H](CN)Cc2ccc(F)c(F)c2)oc1Cl | 2.34 µM and 3.01 µM | 7.35 µM and > 8.68 µM | 1.64 µM and 1.21 µM | 7.21 µM and 3.16 µM | 0.0303 µM and 0.0404 µM | 0.3 µM and 0.472 µM | 10.2 µM and 2.94 µM | 24.5 µM and > 10 µM | 7.82 µM and 4.1 µM | 21.8 µM and > 10 µM | 1.02 µM and 0.935 µM | 4.78 µM and 3.2 µM | 0.36 µM and 0.687 µM | 1.61 µM and 2.59 µM | 1.4 µM and 0.846 µM | 3.36 µM and 2.08 µM | 17.1 µM and > 10 µM | 5.17 µM and 2.44 µM | 19.7 µM and > 10 µM | 0.0508 µM and 0.027 µM |
| Cc1cc([N+](=O)[O-])c2ccccc2[n+]1[O-] | 0.156 µM and 0.0991 µM | 4.28 µM and 3.04 µM | 1.71 µM and 1.49 µM | 4.45 µM and 4.7 µM | 0.185 µM and 0.144 µM | 0.464 µM and 0.416 µM | 0.547 µM and 1.42 µM | 3.45 µM and 7.68 µM | 0.0728 µM and 0.0543 µM | 0.766 µM and 0.523 µM | 1.61 µM | 3.9 µM and 4.54 µM | 1.39 µM and 2.17 µM | 3.07 µM and 4.34 µM | 2.09 µM and 0.722 µM | 0.396 µM and 0.405 µM | 5.84 µM and 5.82 µM | 0.504 µM and 0.59 µM | 2.51 µM and 3.75 µM | 0.421 µM and 0.165 µM |
| CN1CSC(=S)N(Cc2ccccc2)C1 | 2.81 µM | > 100 µM | 13.7 µM | 30.4 µM | 0.017 µM | 31.2 µM | 28.2 µM | > 100 µM | 3.16 µM | 12.4 µM | 18.4 µM | 41 µM | 15.4 µM | 37.4 µM | 65.9 µM | 14.8 µM | 36.1 µM | 14.1 µM | 36.6 µM | 5.81 µM |
| COC(=O)CSSCc1ccc([N+](=O)[O-])cc1 |  | > 100 µM |  | 98.4 µM |  | 45.7 µM |  | 47.1 µM |  | 36.8 µM |  | 36.7 µM |  | 67.7 µM | 55.2 µM |  | 45.9 µM |  | > 100 µM |  |
| O=S(=O)(c1cnccc1N1CCN(CCO)CC1)N1CCCC1 |  | > 100 µM |  | > 100 µM |  | > 100 µM |  | > 100 µM |  | > 100 µM |  | > 100 µM |  | > 100 µM | > 100 µM |  | > 100 µM |  | > 100 µM |  |
